Where two headings read alike, the source gives them in different places.
Assays:
ROS1 = ROS1 degradation in Ba/F3 cells (WES immunoblotting); assay type: cell-based; settings: for DC50: concentration needed to reduce ROS1 protein by 50%, Ba/F3 cells; for Dmax (%) (ROS1): maximal degradation of ROS1 in Ba/F3 cells
Procedure, shortened: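 ROS1 and phospho-ROS1 (Tyr2274/2334) in Ba/F3 lysates quantified by capillary immunoassay (WES) with chemiluminescent detection, duplicate experiments. Levels expressed as AUC of the chemiluminescence peak.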

[1] = Metabolic stability in human microsomes; assay type: in vitro ADME; settings: 250 nM compound, NADPH, 37 °C; for microsomal CLint at 1 h, 0.25 µM / half-life at 1 h, 0.25 µM: human, pooled human microsomes, pH 7.4; for half-life at 1 h, 0.25 µM: read-out: metabolic stability in human microsomes T1/2
Protocol: (§1) Pooled human and rat microsomes were prepared and stored at −80 °C prior to use. A master-mix containing microsome, phosphate buffer, and test compound (9 series) solution was made as follows: (1) 3 μL of microsome (20 mg/mL) was diluted with mixed 30 μL of potassium phosphate buffer (pH 7.4; 10×) and 246 μL of water; (2) 3 μL of 25 μM drug solution was added to the microsome; (3) the master solution was prewarmed at 37 °C for 5 min. NADPH solution A (15 μL) and NADPH solution B (3 μL) from Promega were added to the above-mentioned master solution to initiate the reaction. The final concentration of 9 compounds in the reaction system was 250 nM. An aliquot of 20 μL was pipetted from the reaction solution and stopped by the addition of 180 μL of cold MeCN containing 25 ng of Tamoxifen-(N,N-dimethyl-13C2)-15N as an internal standard at the designated time points (0, 5, 15, 30, 45, and 60 min). The incubation solution was vortexed-mixed (800 rpm/10 min) and centrifuged at 3500 rpm for 10 min to precipitate proteins. The supernatant was collected and used for the LC/MS/MS analysis. The natural log of the remaining percentage of the test compound was plotted against time and the gradient of the line was determined.

[2] = tested on: Ba/F3 CD74-ROS1 non mutant; test: Antiproliferation assay (Alamar Blue, 72 h); assay type: cell-based, mouse; settings: cell growth inhibition
[3] = Pharmacokinetics study in Sprague–Dawley rats; assay type: in vivo; settings: rat; for bioavailability: 10 mg/kg po vs 1 mg/kg iv; for AUC: read-out: AUC (po)
Protocol: Four to 6 weeks old Sprague–Dawley rats [Crl: CD (SD)] (SPF/VAF) were purchased from Charles River (Wilmington MA). Animals were quarantined/acclimated for 2–6 weeks prior to dose initiation. Sprague–Dawley rats were given oral administration of test compounds (20% PG, 5% Solutol, and 75% of 20% HP-β-CD in water) at different dose levels. After treatment with the compounds, whole blood was collected from each study animal by puncture of the tail vein (0.4 mL of whole blood from rats) into tubes containing K2EDTA at each time point. The plasma samples were divided into 2 aliquots (approximately equal in volume) and stored frozen at −75 ± 15 °C within 2 h of the collection until analysis.
The stock solution of the test compound (0.01 M) in DMSO was prepared and stored at −20 ± 5 °C. The desired serial concentrations of working reference analyte solutions were achieved by diluting a stock analyte solution with 50% acetonitrile (0.1% formic acid) in water solution. The bioanalytical LC–MS/MS method was developed for quantitative determination of each test compound in Sprague–Dawley rat plasma with acceptable selectivity, sensitivity, calibration curve, precision, and accuracy. The analytical method is applicable for the determination of test compounds in Sprague–Dawley rat plasma with a lower limit of quantification of 10.0 ng/mL and an upper limit of quantification of 5000 ng/mL. Five microliters of diluted supernatant was injected into the LC–MS/MS system (TSQ Quantis) and a SynergiTM 4 μm Fusion-RP 80 Å (50 × 2 mm) column using gradient elution and a Triple Quad mass spectrometer) for quantitative analysis. The mobile phases used were 0.1% formic acid in deionized water and 0.1% formic acid in acetonitrile. The pharmacokinetic parameters T1/2 (the biological half-life), Cmax (maximal concentration), Tmax (time at which Cmax is observed), and AUC (area under the plasma concentration–time curve) were calculated from the plasma concentration versus time data using WinNonlin (PhoenixTM, version 8.1, Mountain View, CA, USA).

[4] = Metabolic stability in rat microsomes; assay type: in vitro ADME; settings: 250 nM compound, NADPH, 37 °C; for microsomal CLint at 1 h, 0.25 µM / half-life at 1 h, 0.25 µM: rat, pooled rat microsomes, pH 7.4; for half-life at 1 h, 0.25 µM: read-out: metabolic stability in rat microsomes T1/2
Protocol: as §1

Ba/F3 ROS1-G2032R = test: Antiproliferation assay; assay type: cell-based, mouse; settings: Ba/F3 cells, cell growth inhibition, 72 h
Log P measurement = assay type: physicochemical
Description: An important physicochemical property for a PROTAC molecule is its lipophilicity that largely dictates its pharmaceutical performance such as absorption, permeability, and distribution.

[5] = Pharmacokinetics study in Sprague–Dawley rats; assay type: in vivo; settings: rat
Ba/F3 ROS1 D2033N = test: Antiproliferation assay; assay type: cell-based; settings: Mus musculus, BaF3; Ba/F3 cells, cell growth inhibition
Description: (§2) To assess targeted degradation of ROS1 fusion proteins, we first established a mouse pro-B cell line Ba/F3 as a model expressing the CD74-ROS1 oncogene or CD74-ROS1 with clinically observed secondary/tertiary mutations. The Ba/F3 cell line is dependent on interleukin-3 for survival and proliferation. Upon transduction of oncogenic ROS1, Ba/F3 cells become independent of interleukin-3 but dependent on the transduced driver gene.
(§3) Ba/F3 immortalized murine bone marrow–derived pro-B cells were obtained from Creative Biogene (Shirley, NY) and cultured in RPMI supplemented with 10% FBS and IL3 (0.5 ng/mL). Ba/F3 cells expressing ROS1 variants were maintained in RPMI supplemented with 10% FBS and puromycin (0.7 mg/mL). […] Each compound was dissolved in DMSO and serially diluted in RPMI for cell culture experiments.
(§4) To assess the 72 h effect of drug treatment on cell proliferation, 2000 to 3000 cells were plated in replicates of three in 96-well plates. The plates were placed in an incubator at 37 °C, 5% CO2 for 72 h. Following drug treatments, the cells were incubated with the Alamar Blue Assay reagent (BioRad), 5 μL each well for 4 h at 37 °C and 5% CO2. Luminescence was measured on a multiplate reader and analyzed. […] IC50 values were determined using a nonlinear regression model with a sigmoidal dose response in GraphPad. The data were collected based on triplicate experiments, and presented as mean ± SD.
(§5) The resulting virus was used to infect Ba/F3 cells. After retroviral infection, Ba/F3 cells were selected by incubation with puromycin (0.7 mg/mL) for 2 weeks. For Ba/F3 cells infected by the CD74–ROS1 variants, IL3 was withdrawn from the culture medium at least 2 weeks before the experiments.

Ba/F3 ROS1 G2032R-F2075V = test: Antiproliferation assay; assay type: cell-based; settings: Mus musculus, BaF3; Ba/F3 cells, cell growth inhibition
Description: as §2, §3, §4, §5

Ba/F3 ROS1 L2026M = test: Antiproliferation assay; assay type: cell-based; settings: Mus musculus, BaF3; Ba/F3 cells, cell growth inhibition
Description: as §2, §3, §4, §5

Ba/F3 ROS1 L2086F = test: Antiproliferation assay; assay type: cell-based; settings: Mus musculus, BaF3; Ba/F3 cells, cell growth inhibition
Description: as §2, with “gene. The Ba/F3 models have been effectively employed in the discovery and preclinical development of next generation ROS1 inhibitors.[11],[14],[15] We have tested ROS1 inhibitors against these Ba/F3 cells to validate their sensitivity and resistance to ROS1 inhibition.” for “gene.”
Ba/F3 immortalized murine bone marrow–derived pro-B cells were obtained from Creative Biogene (Shirley, NY) and cultured in RPMI supplemented with 10% FBS and IL3 (0.5 ng/mL). Ba/F3 cells expressing ROS1 variants were maintained in RPMI supplemented with 10% FBS and puromycin (0.7 mg/mL). Crizotinib, ceritinib, brigatinib, repotrectinib, and lorlatinib were purchased from MedChem Express. Each compound was dissolved in DMSO and serially diluted in RPMI for cell culture experiments.
as §4
as §5, with “cDNA encoding CD74-ROS1 or mutant CD74–ROS1 was cloned into retroviral expression vectors (pLenti), and viruses were generated in HEK293T cells by transfecting with packaging plasmids. The” for “The”

[6] = Mus musculus, BaF3, 72 h, Ba/F3 cells
[7] = Sprague-Dawley [Crl: CD (SD)], plasma, 10 mg/kg po
[8] = Sprague-Dawley [Crl: CD (SD)], plasma
[9] = Sprague-Dawley [Crl: CD (SD)], plasma, 10 mg/kg po, read-out: Tmax

Row | DC50 (ROS1) [nM] | IC50 ([2]; Ba/F3 cells) [nM] | microsomal CLint at 1 h, 0.25 µM [1] [µL/min/mg] | half-life at 1 h, 0.25 µM [1] [min] | IC50 [2, 6] [nM] | Cmax at 24 h [3, 7] [ng/mL] | half-life [3, 7] [min] | bioavailability [3, 8] [%] | AUC [3, 7] [ng·h/mL] | Tmax [3, 9] [h] | microsomal CLint at 1 h, 0.25 µM [4] [µL/min/mg] | half-life at 1 h, 0.25 µM [4] [min] | IC50 (Ba/F3 ROS1-G2032R; Mus musculus, BaF3) [nM] | logP (Log P measurement) | AUC (iv) ([5]; 1 mg/kg iv) | Compound | Dmax (%) (ROS1) (ROS1) | other results
1 | 10 | 13 ± 2 |  |  |  |  |  |  |  |  |  |  |  |  |  | COc1cc(N2CCN(CC3CN(c4ccc5c(c4)C(=O)N(C4CCC(=O)NC4=O)C5=O)C3)CC2)ccc1Nc1ncc(Cl)c(Nc2ccccc2P(C)(C)=O)n1 (stereo not shown) [9b, 5-(3-((4-(4-((5-Chloro-4-((2-(dimethylphosphoryl)phenyl)amino)pyrimidin-2-yl)amino)-3-methoxyphenyl)piperazin-1-yl)methyl)azetidin-1-yl)-2-(2,6-dioxopiperidin-3-yl)isoindoline-1,3-dione] | 96 | metabolic stability in human microsomes Clint [1]: 119.5 µL/min/mg; metabolic stability in human microsomes T1/2 [1]: 29.0 min; AUC (po) ([3]; 10 mg/kg po): 41,622 h·ng/mL; Cmax ([3]; 10 mg/kg po): 4582 ng/mL; T1/2 ([3]; 10 mg/kg po): 4.11 h; Tmax ([3]; 10 mg/kg po): 3 h; % F ([3]; 10 mg/kg po vs 2 mg/kg iv): 16.5%; metabolic stability in rat microsomes Clint [4]: 13.8 µL/min/mg; metabolic stability in rat microsomes T1/2 [4]: 100.5 min; IC50 (Ba/F3 ROS1-G2032R): 153 ± 20 nM; log P (Log P measurement): 2.84; AUC (iv) ([5]; 2 mg/kg iv): 50,451 h·ng/mL
2 | 5.1 |  | 57 | 60.8 | 3.8 ± 0.2 | 3240 | 462 | 12.2 | 25400 | 2 | 12.8 | 108 | 80 ± 27 | 2.5 | 20,850 h·ng/mL | COc1cc(N2CCC(N3CCN(CC4CN(c5ccc6c(c5)C(=O)N(C5CCC(=O)NC5=O)C6=O)C4)CC3)CC2)ccc1Nc1ncc(Cl)c(Nc2ccccc2P(C)(C)=O)n1 (stereo not shown) [9e, 5-(3-((4-(1-(4-((5-Chloro-4-((2-(dimethylphosphoryl)phenyl)amino)pyrimidin-2-yl)amino)-3-methoxyphenyl)piperidin-4-yl)piperazin-1-yl)methyl)azetidin-1-yl)-2-(2,6-dioxopiperidin-3-yl)isoindoline-1,3-dione] | 97 | 
3 | 13 | 11 ± 2 | 63.4 | 55 | 11.2 | 284 | 499 | 9.8 | 3030 | 2 | 8.8 | 158 | 27 ± 10 | 2.88 | 3093 ng·h/mL | COc1cc(N2CCC(N3CCN(CC4CCN(c5ccc6c(c5)C(=O)N(C5CCC(=O)NC5=O)C6=O)CC4)CC3)CC2)ccc1Nc1ncc(Cl)c(Nc2ccccc2P(C)(C)=O)n1 (stereo not shown) [9f, 5-(4-((4-(1-(4-((5-Chloro-4-((2-(dimethylphosphoryl)phenyl)amino)pyrimidin-2-yl)amino)-3-methoxyphenyl)piperidin-4-yl)piperazin-1-yl)methyl)piperidin-1-yl)-2-(2,6-dioxopiperidin-3-yl)isoindoline-1,3-dione] | 99 | 

Row | Compound | DC50 (ROS1) [nM] | IC50 ([2]; Ba/F3 cells) [nM] | microsomal CLint at 1 h, 0.25 µM [1] [µL/min/mg] | half-life at 1 h, 0.25 µM [1] [min] | IC50 [2, 6] [nM] | Cmax at 24 h [3, 7] [ng/mL] | half-life [3, 7] [min] | bioavailability [3, 8] [%] | AUC [3, 7] [ng·h/mL] | Tmax [3, 9] [h] | microsomal CLint at 1 h, 0.25 µM [4] [µL/min/mg] | half-life at 1 h, 0.25 µM [4] [min] | IC50 (Ba/F3 ROS1-G2032R; Mus musculus, BaF3) [nM] | logP (Log P measurement) | AUC (iv) ([5]; 1 mg/kg iv) | Dmax (%) (ROS1) (ROS1) | other results
4 | CN1CCN(c2ccc(C(=O)Nc3n[nH]c4ccc(Cc5cc(F)cc(F)c5)cc34)c(NC3CCOCC3)c2)CC1 [entrectinib] |  |  |  |  |  |  |  |  |  |  |  |  | 980 ± 77 |  |  |  | IC50 (Ba/F3 ROS1 D2033N): 132 ± 15 nM; IC50 (Ba/F3 ROS1 G2032R-F2075V): > 2000 nM; IC50 (Ba/F3 ROS1 L2026M): 56 ± 7 nM; IC50 ([2]; Mus musculus, BaF3, Ba/F3 cells): 2.4 ± 0.4 nM; IC50 (Ba/F3 ROS1 L2086F): 506 ± 97 nM

— publication PMC11513893, “Discovery of Oral Degraders of the ROS1 Fusion Protein with Potent Activity against Secondary Resistance Mutations” (Journal of Medicinal Chemistry, 2024)
